Measured values published in article PMC3169616, “Unique Residues Involved in Activation of the Multitasking Protease/Chaperone HtrA from Chlamydia trachomatis” (PLoS ONE, 2011).

How the values were obtained:
[1] = biological target: T1, CtHtrA (Chlamydia trachomatis serovar D, UniProt P18584); assay: Activation of CtHtrA cleavage of Bcas1 substrate by added activator; type: biochemical; details: substrate Bcas1 (MCA-ENLHLPLPIIF-DNP), fluorimetric, 37°C
T1 construct: His-tag; made in house; host or cells: E. coli BL21 (DE3), plasmid pETHtrA
T1 sequence (P18584 17-497): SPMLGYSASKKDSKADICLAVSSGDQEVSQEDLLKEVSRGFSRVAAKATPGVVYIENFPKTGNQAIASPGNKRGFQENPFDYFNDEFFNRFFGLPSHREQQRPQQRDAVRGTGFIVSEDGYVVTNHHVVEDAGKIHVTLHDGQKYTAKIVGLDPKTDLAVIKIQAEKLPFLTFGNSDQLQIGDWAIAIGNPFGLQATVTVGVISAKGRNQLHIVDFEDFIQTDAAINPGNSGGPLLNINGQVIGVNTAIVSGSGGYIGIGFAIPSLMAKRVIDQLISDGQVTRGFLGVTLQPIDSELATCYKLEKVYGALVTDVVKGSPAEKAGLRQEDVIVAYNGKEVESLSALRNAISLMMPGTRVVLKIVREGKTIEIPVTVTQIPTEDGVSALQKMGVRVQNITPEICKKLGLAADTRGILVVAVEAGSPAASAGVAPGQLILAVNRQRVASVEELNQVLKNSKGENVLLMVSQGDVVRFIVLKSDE
Method: (§1) To determine if the addition of a second peptide to the protease assays could activate or increase CtHtrA proteolysis, two activator peptides were tested in the CtHtrA cleavage of the model ß-casein peptide substrate Bcas1. The first was based on the ß-casein C-terminal sequence (Act1: NH2-VLGPVRGPFPIIV-OH) and the second on insulin b chain C-terminal sequence (Act2: NH2-CGELGFFYTP-OH).
Finally, in order to determine if the 24-mer (highest amount with MOMP protein, or Act1), or 12-mer, or both, corresponds to enhanced protease activity, the incubations of CtHtrA and these potential in vivo activators were used for protease assays with the Bcas1 substrate (Fig. 6). […] The presence of the majority of CtHtrA as higher order oligomers correlated with an increased rate of proteolysis for CtHtrA, particularly when these oligomers were predominately 24-mers.
The purified recombinant protein was examined by Coomassie stained polyacrylamide gels and activity was checked using ß-casein cleavage assays prior to use in peptide assays. Briefly, this involved incubating 2 µg of the protease with 10 µg of ß-casein in 50 mM Tris pH 7.0, 20 mM MgCl2 for 2 h prior to examining the assays by SDS PAGE (ß-casein and protease only controls were always conducted). Protease assays using peptides were conducted using custom synthesised peptides (Mimotopes). […] Protease assays using pNA labelled peptides were conducted using the xMARK Microplate spectrophotometer (Bio-Rad) at 405 nm, incubated at 37°C, with a reading taken every 10 s for 30 min. The maximum slope over a minimum of 8 readings was used for the data analysis. […] The assays were excited at 340 nm and emission was detected at 405 nm with a gain of 1000, the assays were monitored every 20 s or at the minimum cycle time for up to 40 min. […] The assay results shown for the fluorescent compounds have been normalised for the amount of fluorescent emission detected using a standard curve of known concentrations of the MCA fluorophore under the identical assay conditions. […]

[2] = biological target: T1, CtHtrA; assay: Activation of CtHtrA cleavage of pNA peptides by added activator peptide; type: biochemical; details: data not shown
Method: as §1
One explanation for the observation of a lack of activation for some substrates could be that these substrates act as both activators and substrates by binding to both the active and allosteric sites of CtHtrA. In particular, the pNA peptides were not activated, which could imply that the pNA moiety itself may bind at the activation site. […]
The purified recombinant protein was examined by Coomassie stained polyacrylamide gels and activity was checked using ß-casein cleavage assays prior to use in peptide assays. […] Protease assays using pNA labelled peptides were conducted using the xMARK Microplate spectrophotometer (Bio-Rad) at 405 nm, incubated at 37°C, with a reading taken every 10 s for 30 min. The maximum slope over a minimum of 8 readings was used for the data analysis. […] The assays were excited at 340 nm and emission was detected at 405 nm with a gain of 1000, the assays were monitored every 20 s or at the minimum cycle time for up to 40 min. […]

QNIPF
effect of activator on rate of CtHtrA proteolysis of Bcas1 [1]: did not activate CtHtrA cleavage of Bcas1 | effect of activator peptide on CtHtrA cleavage of pNA peptides [2]: did activate the cleavage of some of the pNA peptides tested
